# Laboratory results from patent publication US5597595A, “Low pH beverage fortified with calcium and vitamin D” (Abbott Laboratories, priority 1995, dated 1997).
# Counter-ions that a name gives are not always drawn. Like-named read-outs stand apart in the source and are kept apart here.
# Key:
# [1] = in orange juice and apple juice; cited from earlier work
# [2] = Aluminum content of calcium sources; settings: analysis of commercially available compounds
# From the text: ^1 Values determined by analysis of commercially available compounds.
# [3] = 600-800 IU/day; elderly, homebound or institutionalized individuals; cited from earlier work
# [4] = rats fed three weeks, right femur calcium; cited from earlier work
# [5] = without aluminum-containing drugs; normally functioning kidneys; cited from earlier work
# [6] = Acid-base and calcium binding constants of glycerophosphate; assay type: physicochemical; settings: Henderson-Hasselbalch equation; listed as GP
# From the text: GaGP binds calcium with an approximate formation constant of 1.7. CaGP, when dissolved in water, dissociates readily to provide "free" calcium ions and protonated glycerophosphate species. […] On the other hand, anions, such as malate, tartrate, propionate or succinate, do provide buffer capacity at pH=3.6, and accordingly require more base or acid than GP for final adjustment of pH.
# [7] = weak acid; cited from earlier work
# [8] = Experimental: In this evaluation solubility was determined by a visual examination.
# [9] = Titratable acidity of calcium sources; assay type: physicochemical; settings: with the exception of calcium chloride
# From the text: Acidity is desired in the liquid nutritional product of the present invention for several reasons such as: to maintain the calcium salt solubility, to complement flavor, to control microbial growth, and to enhance the role of preservatives, specifically potassium benzoate or sodium benzoate. On the other hand, too much acidity can result in increased tartness and sourness that make the product undesirable from a sensory point of view. […] Titratable acidity is an indication of the total acidity of a beverage.
# [10] = low birth weight infants; cited from earlier work
# [11] = piglets; cited from earlier work
# [12] = tested on: aciduric and acidophilic organisms like certain varieties of yeasts and molds; settings: pH reduced from 4.5 to 3.0; cited from earlier work
# [13] = Recovery of vitamin D3 at 0-time; assay type: physicochemical
# From the text: The low pH beverage, the vitamin D3 emulsion and the powder beverage are saponified with methanolic potassium hydroxide to destroy the fat and release the vitamin D3 for extraction. The saponified samples are extracted with an ether/pentane mixture and the extracts are evaporated to dryness using nitrogen and reconstituted with iso-octane. Sample extracts are eluted on a cleanup HPLC column (cyanopropyl bonded silica), and column switching is used to transfer a "slice" of the eluant containing vitamin D3 onto an additional HPLC analytical column (aminopropyl bonded silica) for final quantitation. The vitamin D3 peak in the sample is quantitated using a linear regression external standard curve.
# To compare the initial processing loss and stability of vitamin D3 of each variable with successive batches, two criteria were routinely measured: (1) % recovery of vitamin D3 at 0-time; and (2) half life of vitamin D3 (t1/2).
# The % recovery of vitamin D3 of each batch was calculated by dividing the 0-time vitamin D3 result by the theoretical fortification of each batch times 100%. […] As used herein "theoretical fortification" refers to amount of vitamin D3 added to the product. As used herein "0-time" refers to the time of initial vitamin D3 analysis of the product. […]
molecule,measurement,setting,value
O=C(CO)[C@@H](O)[C@H](O)[C@H](O)CO [Fructose],calcium bioavailability from CCM,[1],promoted positive calcium bioavailability
[Ca+2].[OH-].[OH-] [Calcium Hydroxide],Aluminum Content,[2],300-400 parts per million (ppm)
vitamin D,effect on calcium balance and fracture risk,[3],improve calcium balance and reduce fracture risk
"O=C(O)CC(O)(CC(=O)O)C(=O)O [Calcium Citrate, calcium citrate]",relative calcium bioavailability as compared to a control,[4],110%
same,risk of aluminum toxicity,[5],does not pose a risk of aluminum toxicity
"O=P([O-])([O-])[O-].O=P([O-])([O-])[O-].[Ca+2].[Ca+2].[Ca+2] [Tricalcium Phosphate, tricalcium phosphate]",relative calcium bioavailability as compared to a control,[4],110%
O=P(O)(O)OCC(O)CO (centres unmarked) [glycerophosphate],effective acid-base buffering pH range / buffering capacity,[6],insignificant buffering capacity at pH=3.6
same,pKf,[7],6.1
"O=C(O)[C@H](O)[C@@H](O)[C@H](O)[C@H](O)CO [D-Gluconic-Acid, D-gluconic acid (hemicalcium salt)]","solubility at 1 month, pH 5.0",[8],partially Soluble
Calcium Glycerophosphate [CaGP],"titratable acidity, in words",[9],lowest titratable acidity
same,effectiveness as a source of calcium in TPN solutions,[10],as effective as calcium gluconate
same,effectiveness as a source of calcium in TPN solutions,[11],as effective as calcium gluconate
O=C(O)c1ccccc1 [benzoic acid],preservative effect on reducing pH,[12],increased by nearly three times
N[C@@H](CS)C(=O)O [Cysteine],"vitamin D3 recovery, in words",[13],did not affect vitamin D3 recovery
